Laboratory results reported in patent US8779195B2, “Polyamine derivatives” (Nihon University, priority 2006, dated 2014).
Where a name gives a salt, the structure may show the parent alone. Read-outs that look alike come from different tables or passages of the source.

Experiments:
NMDA receptor NR1/NR2A = NMDA receptor NR1/NR2A (Rattus norvegicus, UniProt P35439+Q00959); experiment: two-electrode voltage clamp, NMDA receptor activity inhibition in Xenopus oocytes (NR1/NR2A); format: cell-based
Experimental: (§1) To confirm pharmacological function of TsPD, TsPDG, TsSPMG, BsPDG, and Tosyl-SPM synthesized above (synthesized by the method described in Patent Document 1 mentioned above), the effect of these compounds on NMDA receptor was measured by a two-electrode voltage clamp method.
(§2) This method can be carried out in accordance with the method of Masuko et al. (Masuko T. et al., Mol. Pharmacol. 55: 957-969 (1999); Masuko T. et al., Nuerosci. Lett. 371: 30-33 (2004); Masuko T. et al., Chem. Pharm. Bull. 53 (4) 444-447 (2005)). To the oocyte, cRNAs of an NR1 subunit and an NR2 subunit of NMDA receptor were injected in a ratio of 1:5 (NR1: 0.1 to 4 ng, NR2: 0.5 to 20 ng) to obtain the oocyte in which NMDA receptor was expressed.
(§3) The oocytes were cultured in a medium (96 mM NaCl, 2 mM KCl, 1 mM MgCl2, 1.8 mM CaCl2, 5 mM Na-HEPES, 2.5 mM sodium pyruvate, 50 μg/ml gentamicin, pH=7.5) at 19° C. for 1 to 3 days.
(§4) At the measurement date, K^+-BAPTA was injected in the oocytes and then, the activity of the receptors was measured by the two-electrode voltage clamp method (described later) using a recording buffer (96 mM NaCl, 2 mM KCl, 1.8 mM BaCl2, 10 mM Na-HEPES, pH=7.5).
(§5) Note that there is a single type of gene in NR1 and 4 types of genes, namely NR2A to NR2D, in NR2. There are NR1/NR2A, NR1/NR2B, NR1/NR2C and NR1/NR2D subtypes in NMDA receptor. However, NR1/NR2A and NR1/NR2B subtypes are conceivably present widely in the brain. Therefore, the activity inhibitory effects on these two types were measured in the following experiments.
(§6) The two-electrode voltage clamp method was carried out in accordance with the method of Williams et al. (Williams, K. et al., Mol. Pharmacol 38: 85-108). The current flowing through the entire membrane of the oocyte was measured by an amplifier CEZ-1250 (Nihon Kohden Corporation) for the two-electrode voltage clamp method. The electrode was filled with 3M potassium chloride and the resistance was set at 0.4 to 4 MΩ. In measurement, glutamate and glycine were added as NMDA agonists.
(§7) To the oocytes obtained by the aforementioned method, various concentrations of TsPD, TsPDG, TsSPMG, BsPDG and Tosyl-SPM were added. The activity inhibitory effect on […] subtypes was measured at a fixed voltage (Vh) of −70 mV (resting membrane potential).
(§8) As a comparative example, the same measurement is performed by use of Dansyl-SPM represented by the aforementioned formula (III).
(§9) Values obtained from 4 to 5 oocytes were averaged. The average value±S.E.M. was regarded as a measurement value.

NMDA receptor NR1/NR2B = NMDA receptor NR1/NR2B (Rattus norvegicus, UniProt P35439+Q00960); experiment: two-electrode voltage clamp, NMDA receptor activity inhibition in Xenopus oocytes (NR1/NR2B); format: cell-based
Experimental: as §1, §2, §3, §4, §5, §6, §7, §8, §9

[1] = cytotoxicity test, Alamar blue assay; format: cell-based; details: human, 24 hours exposure, read-out: IC50 (concentration at which respiratory activity is 50%)
Experimental: A cytotoxicity test was carried out with respect to TsPD, TsPDG, TsSPMG, BsPDG and Tosyl-SPM. Also in this test, Dansyl-SPM was used in a comparative example.
SH-SY5Y neuroblastoma cell line was purchased from the American Type Culture Collection. The cells were cultured in a D-MEM medium to which penicillin (100 U/ml), streptomycin (100 U/ml) and inactivated fetal bovine serum (Gibco) were added. The cells were maintained in a CO2 incubator at 37° C. and kept under the condition of 95% air and 5% CO2.
Undifferentiated SH-SY5Y cells were exposed to various concentrations of polyamine derivatives for 24 hours. An Alamar blue stock solution was transferred to a 96 well plate. The final assay volume was set at 100 μl/well and the final concentration of the Alamar blue was set at 10%. Six hours later, reduced Alamar blue was measured at a wavelength of 570 nm (FIG. 3). A survival rate (%) of the cells exposed to a polyamine derivative for 24 hours was expressed by a relative value of respiratory activity of the cells based on respiratory activity (100%) of mitochondria of the cells to which no drug is added.

[2] = test system: Rat hippocampal primary culture cells; experiment: protective effect against nerve cell death induced by glutamate (lactate dehydrogenase release); format: cell-based; details: glutamate exposure one hour, LDH release after 24 hours
Experimental: (§10) Next, the protective effect of polyamine derivatives against nerve cell death due to excitotoxicity was investigated. Rat hippocampal primary culture cells were cultured for seven days and exposed to glutamate or NMDA for one hour. Nerve cell death induced in this manner was evaluated based on lactate dehydrogenase release after 24 hours as an index, significant cell death was observed. In addition, it was observed that nerve cell death caused by glutamate and NMDA exposure has concentration dependency.

[3] = test system: Rat hippocampal primary culture cells; experiment: protective effect against nerve cell death induced by NMDA (lactate dehydrogenase release); format: cell-based; details: NMDA exposure one hour, LDH release after 24 hours
Experimental: as §10

[4] = test system: mouse convulsion induced by NMDA; experiment: suppression of NMDA-induced convulsion in mouse (permeability through the blood brain barrier); format: in vivo
Experimental: Polyamine derivatives according to the present invention were evaluated for permeability through the blood brain barrier.
When 100 mg/kg NMDA was injected into a mouse abdominal cavity, convulsion is induced several minutes later. Then, the convulsion suppression effect of a polyamine derivative on mouse convulsion induced by NMDA was investigated.
When 0.5 mg/kg TsPDG and BsPDG were intravenously administered into a mouse 30 minutes before NMDA injection, the time of convulsion induced by NMDA was reduced by 43% and 39%. This reduction rate of convulsion time was equivalent to that (38%) when 10 mg/kg memantine intravenously administered.

NMDA receptor = details: read-out: IC50 of memantine (NMDA receptor); cited from earlier work
[5] = Xenopus oocytes, Vh -70 mV, glutamate and glycine as agonists, mean ± S.E.M. of 4 to 5 oocytes, read-out: IC50 NR1/NR2A
[6] = Xenopus oocytes, Vh -70 mV, glutamate and glycine as agonists, mean ± S.E.M. of 4 to 5 oocytes, read-out: IC50 NR1/NR2B
[7] = 0.5 mg/kg intravenously 30 minutes before 100 mg/kg NMDA i.p.
[8] = undifferentiated SH-SY5Y neuroblastoma cells

Sequence of NMDA receptor NR1/NR2B (Q00960 27-1482, other chains not shown): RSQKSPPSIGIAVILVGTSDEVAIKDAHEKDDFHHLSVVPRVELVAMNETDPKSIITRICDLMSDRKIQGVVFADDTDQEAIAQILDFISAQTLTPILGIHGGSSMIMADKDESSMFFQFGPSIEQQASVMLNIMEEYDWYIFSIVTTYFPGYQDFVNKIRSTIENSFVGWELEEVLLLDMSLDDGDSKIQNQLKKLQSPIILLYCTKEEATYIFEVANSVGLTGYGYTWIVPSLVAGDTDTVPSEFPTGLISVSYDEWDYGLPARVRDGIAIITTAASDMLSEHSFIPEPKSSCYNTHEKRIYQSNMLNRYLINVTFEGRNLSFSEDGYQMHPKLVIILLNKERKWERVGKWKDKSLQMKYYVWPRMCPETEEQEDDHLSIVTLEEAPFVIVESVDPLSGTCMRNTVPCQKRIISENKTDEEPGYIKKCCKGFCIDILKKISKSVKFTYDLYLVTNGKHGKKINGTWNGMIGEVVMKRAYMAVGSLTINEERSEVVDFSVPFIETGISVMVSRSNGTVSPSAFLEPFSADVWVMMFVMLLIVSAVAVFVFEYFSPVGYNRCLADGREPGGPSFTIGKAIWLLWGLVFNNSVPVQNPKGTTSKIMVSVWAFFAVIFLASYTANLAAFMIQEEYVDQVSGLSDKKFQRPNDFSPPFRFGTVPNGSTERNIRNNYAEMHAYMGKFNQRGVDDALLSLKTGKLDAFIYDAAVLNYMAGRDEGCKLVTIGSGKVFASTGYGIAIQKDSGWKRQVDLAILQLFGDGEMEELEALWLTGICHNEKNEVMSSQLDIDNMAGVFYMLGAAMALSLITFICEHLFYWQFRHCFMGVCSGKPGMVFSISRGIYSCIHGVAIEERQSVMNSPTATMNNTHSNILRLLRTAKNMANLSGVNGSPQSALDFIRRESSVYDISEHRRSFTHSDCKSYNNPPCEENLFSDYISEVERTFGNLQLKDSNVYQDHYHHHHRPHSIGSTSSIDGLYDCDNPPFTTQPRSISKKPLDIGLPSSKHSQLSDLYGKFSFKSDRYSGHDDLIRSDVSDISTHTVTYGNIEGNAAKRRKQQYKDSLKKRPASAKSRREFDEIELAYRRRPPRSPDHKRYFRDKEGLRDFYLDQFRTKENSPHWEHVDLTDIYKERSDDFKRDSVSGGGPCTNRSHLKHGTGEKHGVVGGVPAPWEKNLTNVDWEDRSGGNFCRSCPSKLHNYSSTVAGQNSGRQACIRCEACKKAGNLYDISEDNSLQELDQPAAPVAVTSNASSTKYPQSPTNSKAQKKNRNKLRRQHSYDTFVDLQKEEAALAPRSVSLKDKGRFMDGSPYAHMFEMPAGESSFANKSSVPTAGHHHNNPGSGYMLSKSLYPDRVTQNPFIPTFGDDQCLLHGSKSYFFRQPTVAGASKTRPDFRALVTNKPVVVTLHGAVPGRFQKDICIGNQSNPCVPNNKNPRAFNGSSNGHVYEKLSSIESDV
Sequence of NMDA receptor NR1/NR2A (Q00959 23-1464, other chains not shown): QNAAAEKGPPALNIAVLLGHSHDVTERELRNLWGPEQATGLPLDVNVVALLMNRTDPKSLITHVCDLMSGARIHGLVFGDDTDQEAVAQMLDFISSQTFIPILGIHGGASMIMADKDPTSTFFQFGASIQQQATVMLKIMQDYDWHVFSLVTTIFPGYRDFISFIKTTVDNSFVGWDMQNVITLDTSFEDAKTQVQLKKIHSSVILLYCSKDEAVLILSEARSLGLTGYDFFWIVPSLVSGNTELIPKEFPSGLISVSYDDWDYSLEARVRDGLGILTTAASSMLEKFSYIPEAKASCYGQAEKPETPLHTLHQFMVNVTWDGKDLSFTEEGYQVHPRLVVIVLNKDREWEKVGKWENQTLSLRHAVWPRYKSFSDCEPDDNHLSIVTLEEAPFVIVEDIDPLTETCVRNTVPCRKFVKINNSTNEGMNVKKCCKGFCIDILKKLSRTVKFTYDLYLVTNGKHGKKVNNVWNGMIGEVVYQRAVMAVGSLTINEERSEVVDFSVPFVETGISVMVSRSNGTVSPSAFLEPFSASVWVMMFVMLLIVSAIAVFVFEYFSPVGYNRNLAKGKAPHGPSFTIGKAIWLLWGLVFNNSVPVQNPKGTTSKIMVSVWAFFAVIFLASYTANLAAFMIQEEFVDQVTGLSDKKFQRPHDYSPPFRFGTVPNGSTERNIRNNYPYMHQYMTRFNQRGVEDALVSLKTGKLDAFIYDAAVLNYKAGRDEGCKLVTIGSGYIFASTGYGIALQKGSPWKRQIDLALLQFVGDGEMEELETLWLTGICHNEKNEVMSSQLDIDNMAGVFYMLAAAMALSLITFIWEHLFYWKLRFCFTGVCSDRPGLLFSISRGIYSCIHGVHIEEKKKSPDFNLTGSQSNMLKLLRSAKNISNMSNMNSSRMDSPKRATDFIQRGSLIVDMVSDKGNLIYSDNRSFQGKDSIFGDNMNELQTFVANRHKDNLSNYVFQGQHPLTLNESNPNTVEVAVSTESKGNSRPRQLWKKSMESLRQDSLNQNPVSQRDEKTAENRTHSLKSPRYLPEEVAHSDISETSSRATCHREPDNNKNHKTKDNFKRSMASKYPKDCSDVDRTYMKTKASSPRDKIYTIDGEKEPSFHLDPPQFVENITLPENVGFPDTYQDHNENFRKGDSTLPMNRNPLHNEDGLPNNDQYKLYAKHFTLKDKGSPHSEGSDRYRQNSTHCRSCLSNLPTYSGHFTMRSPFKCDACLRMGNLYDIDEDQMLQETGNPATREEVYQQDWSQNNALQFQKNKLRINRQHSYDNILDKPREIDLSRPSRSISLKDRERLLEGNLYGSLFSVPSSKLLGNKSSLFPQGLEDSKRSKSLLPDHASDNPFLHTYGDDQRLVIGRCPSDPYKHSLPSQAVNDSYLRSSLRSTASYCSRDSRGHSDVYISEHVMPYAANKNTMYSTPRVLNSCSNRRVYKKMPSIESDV

SMILES	IC50 (NMDA receptor NR1/NR2A; [5])	IC50 (NMDA receptor NR1/NR2B; [6])	IC50 at 24 h ([1]; undifferentiated SH-SY5Y cells)	other results
CCCCS(=O)(=O)NCCCCNCCCCNCCCCNC(=N)N [BsPDG]	0.015 ± 0.001 µM	0.024 ± 0.003 µM	> 3000 µM	suppression of nerve cell death induced by glutamate ([2]; 1 μM compound): significantly suppressed; suppression of nerve cell death induced by NMDA ([3]; 1 μM compound): completely suppressed; reduction of the time of convulsion induced by NMDA [4, 7]: 39%
Cc1ccc(S(=O)(=O)NCCCCNCCCCNCCCCNC(=N)N)cc1 [TsPDG]			2870 ± 66 µM	IC50 (NMDA receptor NR1/NR2A): 0.017 ± 0.002 µM; IC50 (NMDA receptor NR1/NR2B): 0.027 ± 0.002 µM; suppression of nerve cell death induced by glutamate ([2]; 1 μM compound): significantly suppressed; suppression of nerve cell death induced by NMDA ([3]; 1 μM compound): completely suppressed; reduction of the time of convulsion induced by NMDA [4, 7]: 43%
Cc1ccc(S(=O)(=O)NCCCNCCCCNCCCNC(=N)N)cc1 [TsSPMG]	0.32 ± 0.03 µM	0.37 ± 0.05 µM	2640 ± 37 µM	
Cc1ccc(S(=O)(=O)NCCCCNCCCCNCCCCN)cc1 [TsPD]	0.074 ± 0.003 µM	0.15 ± 0.001 µM	1830 ± 46 µM	suppression of nerve cell death induced by glutamate ([2]; 10 μM compound): significantly suppressed; suppression of nerve cell death induced by NMDA ([3]; 10 μM compound): completely suppressed
CC12CC3CC(C)(C1)CC(N)(C3)C2 [memantine, memantine hydrochloride, reference compound]				reduction of the time of convulsion induced by NMDA ([4]; 10 mg/kg intravenously): 38%; IC50 (NMDA receptor): 1 µM
Cc1ccc(S(=O)(=O)NCCCNCCCCNCCCN)cc1 [Tosyl-SPM, N^1-Tosyl-Spermine, reference compound]	0.35 ± 0.01 µM	0.4 ± 0.01 µM		IC50 at 24 h [1, 8]: 336 ± 7 µM
CN(C)c1cccc2c(S(=O)(=O)NCCCNCCCCNCCCN)cccc12 [Dansyl-SPM, N^1-Dansyl-Spermine, reference compound]	0.27 ± 0.03 µM	0.31 ± 0.03 µM		IC50 at 24 h [1, 8]: 30 ± 1 µM
